Assay results as given in patent US20260207798A1, “CYCLIC PEPTIDES AS PET IMAGING AGENTS OF GRANZYME B” (priority 2022, published 2026).
Like-named read-outs stand apart in the source and are kept apart here. Numbered stars: 1 amine (or outer) side, 2 acyl side, 3 side chain; on linkers, the order of the positions; unused ones are H or OH. Bridge positions count the residues as written; N and C are the ends. Square brackets hold non-standard residues; d marks the D form. Peptide text beside a SMILES is read from it. I, II: the chains in the order shown. * marks the point of attachment. X4 = O=C(O)CN1CCN(CC(=O)O)CC(Cc2ccc(NC(=S)NCCC(=O)N(CCOCCOCCOCCOCCC(=O)[*:1])CCOCCOCCOCCOCCC(=O)[*:2])cc2)N(CC(=O)O)CC1; X3 = CC(C)(C)OC(=O)NCCC(=O)N(CCOCCOCCOCCOCCC(=O)[*:1])CCOCCOCCOCCOCCC(=O)[*:2]; X5 = O=C(CCOCCOCCOCCOCCOCCOCCOCCOCCOCCOCCOCCC(=O)[*:2])[*:1]; Pro(trans-4-F) = O=C(O)[C@@H]1C[C@@H](F)CN1; Propionyl = CCC(=O)*

Target: human Granzyme B (hGranzyme B) (Homo sapiens, UniProt P10144)
Experiment: Surface plasmon resonance (SPR) binding kinetics to hGranzyme B
Description: The kinetics of test peptide binding to human Granzyme B (hGranzyme B) was determined by SPR. All experiments were performed at 25° C. using the Biacore 8k+ instrument (Cytiva, Marlborough, MA). The Biacore 8k+ Insight Evaluation Software Version 3.0 was used to fit the data with a 1:1 binding model to determine the association rate constant ka (M^−1s^−1, where “M” ~equals molar and “s” ~equals seconds) and the dissociation rate constant kd (s^−1). These rate constants were used to calculate the equilibrium dissociation constant. KD (M)=kd/ka.
To measure the binding kinetics of peptides of interest, surfaces were prepared by a capture method to a Series S Streptavidin (SA) chip using a 1×HBS-EP+ running buffer (Cytiva). hGranzyme B was diluted to 10 μg/mL in IX HBS-EP+ and flowed over spot 2 of each flow cell on the chip at a flow rate of 10 ul/min for 20 s to achieve a level of capture of ~1100 RU. An unmodified spot 1 of each flow cell was used as a matrix binding control or reference surface. Binding kinetics were measured using single cycle kinetics at 25° C. by injecting 5 concentrations with 3-fold serial dilutions of test peptides from 0.01 μM to 1 μM. Compound dilutions were performed manually in a running buffer containing 1×HBS-EP+(Cytiva), and a final concentration of 2% DMSO. The interaction analyses over hGranzyme B, were performed using a 120 s association time and a 900 s dissociation time. All experiments were conducted at a flow rate of 50 μL/min with a data collection rate of 10 Hz.
Peptide dilution series included 2 zero concentration points (no compound) which were averaged and subtracted from the peptide concentration injection as DMSO control responses. Binding data acquired from the reference surface (matrix binding control) were subtracted from the binding data for hGranzyme B surface on the chip to determine specific binding. Next, the association phase data were solvent corrected to account for any signal fluctuation throughout the experiment due to subtle DMSO concentration differences. Corrected response data were analyzed using the Biacore 8k+ Evaluation Software Version 3.0 according to the manufacturer. SPR data for representative compounds of the disclosure are found in Table 8.

[1] = 25° C., 1:1 binding model, KD=kd/ka, read-out: Granzyme B SPR Kd

Structure (SMILES)	Kd [1]	Kd
C[C@@H]1NC(=O)[C@H](CO)NC(=O)[C@H](CCC(N)=O)NC(=O)[C@H](CC(=O)O)NC(=O)[C@H](CCC(=O)O)NC(=O)[C@H](Cc2ccccc2)NC(=O)[C@H](CC(N)=O)NC(=O)[C@H](Cc2ccccc2)NC(=O)CSC[C@@H](C(=O)NCC(=O)NCC(=O)N[C@@H](CCCCNC(=O)CCOCCOCCOCCOCCN(CCOCCOCCOCCOCCC(=O)NCCCC[C@H](NC(=O)CNC(=O)CNC(=O)[C@@H]2CSCC(=O)N[C@@H](Cc3ccccc3)C(=O)N[C@@H](CC(N)=O)C(=O)N[C@@H](Cc3ccccc3)C(=O)N[C@@H](CCC(=O)O)C(=O)N[C@@H](CC(=O)O)C(=O)N[C@@H](CCC(N)=O)C(=O)N[C@@H](CO)C(=O)N[C@@H](C)C(=O)N[C@@H](CC(=O)O)C(=O)N[C@@H]([C@@H](C)O)C(=O)N[C@@H](Cc3c[nH]c4ccccc34)C(=O)N[C@@H](CCC(N)=O)C(=O)N3CCC[C@H]3C(=O)N2)C(N)=O)C(=O)CCNC(=O)OC(C)(C)C)C(N)=O)NC(=O)[C@@H]2CCCN2C(=O)[C@H](CCC(N)=O)NC(=O)[C@H](Cc2c[nH]c3ccccc23)NC(=O)[C@H]([C@@H](C)O)NC(=O)[C@H](CC(=O)O)NC1=O [Compound 7a, (*F.N.F.E.D.Q.S.A.D.T.W.Q.P.*C.G.G.K.NH2)-bis(PEG4)-β-Ala(Boc)-(*F.N.F.E.D.Q.S.A.D.T.W.Q.P.*C.G.G.K.NH2)] (I: {CH2CO}-FNFEDQSADTWQPCGGK-NH2 / II: {CH2CO}-FNFEDQSADTWQPCGGK-NH2; linker I:17-II:17 via X3; thioether I:N-I:14, II:N-II:14)	< 0.1 nM	–
C[C@@H]1NC(=O)[C@H](CO)NC(=O)[C@H](CCC(N)=O)NC(=O)[C@H](CC(=O)O)NC(=O)[C@H](CCC(=O)O)NC(=O)[C@H](Cc2ccccc2)NC(=O)[C@H](CC(N)=O)NC(=O)[C@H](Cc2ccccc2)NC(=O)CSC[C@@H](C(=O)NCC(=O)NCC(=O)N[C@H](CCCCNC(=O)CCOCCOCCOCCOCCN(CCOCCOCCOCCOCCC(=O)NCCCC[C@@H](NC(=O)CNC(=O)CNC(=O)[C@@H]2CSCC(=O)N[C@@H](Cc3ccccc3)C(=O)N[C@@H](CC(N)=O)C(=O)N[C@@H](Cc3ccccc3)C(=O)N[C@@H](CCC(=O)O)C(=O)N[C@@H](CC(=O)O)C(=O)N[C@@H](CCC(N)=O)C(=O)N[C@@H](CO)C(=O)N[C@@H](C)C(=O)N[C@@H](CC(=O)O)C(=O)N[C@@H]([C@@H](C)O)C(=O)N[C@@H](Cc3c[nH]c4ccccc34)C(=O)N[C@@H](CCC(N)=O)C(=O)N3CCC[C@H]3C(=O)N2)C(N)=O)C(=O)CCNC(=S)Nc2ccc(CC3CN(CC(=O)O)CCN(CC(=O)O)CCN3CC(=O)O)cc2)C(N)=O)NC(=O)[C@@H]2CCCN2C(=O)[C@H](CCC(N)=O)NC(=O)[C@H](Cc2c[nH]c3ccccc23)NC(=O)[C@H]([C@@H](C)O)NC(=O)[C@H](CC(=O)O)NC1=O (stereo partly drawn) [Compound 8a, (*F.N.F.E.D.Q.S.A.D.T.W.Q.P.*C.G.G.K.NH2)-bis(PEG4)-β-Ala(NOTA-1)-(*F.N.F.E.D.Q.S.A.D.T.W.Q.P.*C.G.G.K.NH2)] (I: {CH2CO}-FNFEDQSADTWQPCGG[dK]-NH2 / II: {CH2CO}-FNFEDQSADTWQPCGG[dK]-NH2; linker I:17-II:17 via X4; thioether I:N-I:14, II:N-II:14)	–	< 0.1 nM
C[C@@H]1NC(=O)[C@H](CO)NC(=O)[C@H](CCC(N)=O)NC(=O)[C@H](CC(=O)O)NC(=O)[C@H](CCC(=O)O)NC(=O)[C@H](Cc2ccccc2)NC(=O)[C@H](CC(N)=O)NC(=O)[C@H](Cc2ccccc2)NC(=O)CSC[C@@H](C(=O)NCC(=O)NCC(=O)N[C@@H](CCCCNC(=O)CCOCCOCCOCCOCCOCCOCCOCCOCCOCCOCCOCCC(=O)NCCCC[C@H](NC(=O)CNC(=O)CNC(=O)[C@@H]2CSCC(=O)N[C@@H](Cc3ccccc3)C(=O)N[C@@H](CC(N)=O)C(=O)N[C@@H](Cc3ccccc3)C(=O)N[C@@H](CCC(=O)O)C(=O)N[C@@H](CC(=O)O)C(=O)N[C@@H](CCC(N)=O)C(=O)N[C@@H](CO)C(=O)N[C@@H](C)C(=O)N[C@@H](CC(=O)O)C(=O)N[C@@H]([C@@H](C)O)C(=O)N[C@@H](Cc3c[nH]c4ccccc34)C(=O)N[C@@H](CCC(N)=O)C(=O)N3CCC[C@H]3C(=O)N2)C(N)=O)C(N)=O)NC(=O)[C@@H]2CCCN2C(=O)[C@H](CCC(N)=O)NC(=O)[C@H](Cc2c[nH]c3ccccc23)NC(=O)[C@H]([C@@H](C)O)NC(=O)[C@H](CC(=O)O)NC1=O [Compound 17a, (*F.N.F.E.D.Q.S.A.D.T.W.Q.P.*C.G.G.K.NH2)-PEG11-(*F.N.F.E.D.Q.S.A.D.T.W.Q.P.*C.G.G.K.NH2)] (I: {CH2CO}-FNFEDQSADTWQPCGGK-NH2 / II: {CH2CO}-FNFEDQSADTWQPCGGK-NH2; linker I:17-II:17 via X5 (inferred); thioether I:N-I:14, II:N-II:14 (inferred))	< 0.3 nM	–

The remaining molecules from weak to strong by Kd [1], led by results:

Kd [1]	Structure (SMILES)	Kd
5.1 nM	CCC(=O)NCCCC[C@H](NC(=O)CNC(=O)CNC(=O)[C@@H]1CSCC(=O)N[C@@H](Cc2ccccc2)C(=O)N[C@@H](CC(N)=O)C(=O)N[C@@H](Cc2ccccc2)C(=O)N[C@@H](CCC(=O)O)C(=O)N[C@@H](CC(=O)O)C(=O)N[C@@H](CCC(N)=O)C(=O)N[C@@H](CO)C(=O)N2C[C@H](F)C[C@H]2C(=O)N[C@@H](CC(=O)O)C(=O)N[C@@H]([C@@H](C)O)C(=O)N[C@@H](Cc2c[nH]c3ccccc23)C(=O)N[C@@H](CCC(N)=O)C(=O)N2CCC[C@H]2C(=O)N1)C(N)=O [Compound 14a, *F.N.F.E.D.Q.S.Prot4F.D.T.W.Q.P.*C.G.G.K(Prop).NH2] ({CH2CO}-FNFEDQS[Pro(trans-4-F)]DTWQPCGGK(Propionyl)-NH2; thioether N-14)	–
3.7 nM	CCC(=O)NCCCC[C@H](NC(=O)CNC(=O)CNC(=O)[C@@H]1CSCC(=O)N[C@@H](Cc2ccccc2)C(=O)N[C@@H](CC(N)=O)C(=O)N[C@@H](Cc2ccccc2)C(=O)N[C@@H](CCC(=O)O)C(=O)N[C@@H](CC(=O)O)C(=O)N[C@@H](CCC(N)=O)C(=O)N[C@@H](CO)C(=O)N2CCC[C@H]2C(=O)N[C@@H](CC(=O)O)C(=O)N[C@@H]([C@@H](C)O)C(=O)N[C@@H](Cc2c[nH]c3ccccc23)C(=O)N[C@@H](CCC(N)=O)C(=O)N2CCC[C@H]2C(=O)N1)C(N)=O [Compound 15a, *F.N.F.E.D.Q.S.P.D.T.W.Q.P.*C.G.G.K(Prop).NH2] ({CH2CO}-FNFEDQSPDTWQPCGGK(Propionyl)-NH2; thioether N-14)	–
